In patent publication US6737383B1, “Herbicidal oxadiazolidines” (priority 1999, dated 2004):

Assays:
bedstraw = assay: Test B pre/postemergence bedstraw; format: in vivo, Galium aparine
Outline: (§1)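 Response is a visual 0-to-10 score relative to untreated plants, where 0 means no effect and 10 means complete control, taken twelve to sixteen days after application. Treatments went onto soil at planting and onto foliage of 1- to 4-leaf plants, using a surfactant-containing non-phytotoxic solvent.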

surinam grass = assay: Test B pre/postemergence surinam grass; format: in vivo, Brachiaria decumbens
Outline: as §1

corn = assay: Test B pre/postemergence corn; format: in vivo, Zea mays
Outline: as §1

crabgrass = assay: Test B pre/postemergence crabgrass; format: in vivo, Digitaria sanguinalis
Outline: as §1

[1] = Postemergence, Rate 250 g/ha, scale 0 to 10, 0 no effect, 10 complete control
[2] = Postemergence, Rate 1000 g/ha, scale 0 to 10 (0 no effect, 10 complete control)
[3] = Preemergence, Rate 125 g/ha, scale 0 to 10 (0 no effect, 10 complete control)
[4] = Preemergence, Rate 250 g/ha, scale of 0 to 10 where 0 is no effect and 10 is complete control
[5] = Preemergence, Rate 500 g/ha, scale 0 (no effect) to 10 (complete control)
[6] = Rate 125 g/ha, Postemergence, scale 0 to 10, 0 no effect, 10 complete control
[7] = Rate 500 g/ha, Postemergence, 0 to 10 scale (0 no effect, 10 complete control)
[8] = Rate 1000 g/ha, Preemergence, scale 0 to 10 (0 no effect, 10 complete control)
[9] = Postemergence, Rate 500 g/ha, scale of 0 to 10 where 0 is no effect and 10 is complete control
[10] = Preemergence, Rate 62 g/ha, scale of 0 to 10 where 0 is no effect and 10 is complete control
[11] = Preemergence, Rate 125 g/ha, scale of 0 to 10 where 0 is no effect and 10 is complete control
[12] = Preemergence, Rate 250 g/ha, scale 0 to 10, 0 is no effect, 10 is complete control
[13] = Preemergence, Rate 500 g/ha, scale 0 to 10, 0 is no effect, 10 is complete control
[14] = Rate 62 g/ha, Postemergence, scale 0 to 10 (0 no effect, 10 complete control)
[15] = Rate 125 g/ha, Postemergence, scale 0 to 10, 0 is no effect, 10 is complete control
[16] = Postemergence, Rate 250 g/ha, scale 0 to 10

CCN(CC)C(=O)n1oc(=O)n(-c2ccc(F)cc2)c1=O [Compound 3]
2: Plant response rating, Crabgrass (crabgrass; [8])
0: Bedstraw plant response rating (bedstraw; [1]) | Bedstraw plant response rating (bedstraw; [2]) | Plant response rating, Bedstraw (bedstraw; [3]) | Plant response rating, Bedstraw (bedstraw; [4]) | Bedstraw plant response rating (bedstraw; [5]) | Bedstraw plant response rating (bedstraw; [6]) | Bedstraw plant response rating (bedstraw; [7]) | Plant response rating, Bedstraw (bedstraw; [8]) | B. signalgrass plant response rating (surinam grass; [1]) | B. signalgrass plant response rating (surinam grass; [2]) | Plant response rating, B. signalgrass (surinam grass; [3]) | Plant response rating, B. signalgrass (surinam grass; [4]) | B. signalgrass plant response rating (surinam grass; [5]) | B. signalgrass plant response rating (surinam grass; [6]) | B. signalgrass plant response rating (surinam grass; [7]) | Plant response rating, B. signalgrass (surinam grass; [8]) | Corn plant response rating (corn; [1]) | Corn plant response rating (corn; [2]) | Plant response rating, Corn (corn; [3]) | Plant response rating, Corn (corn; [4]) | Corn plant response rating (corn; [5]) | Corn plant response rating (corn; [6]) | Corn plant response rating (corn; [7]) | Plant response rating, Corn (corn; [8]) | Crabgrass plant response rating (crabgrass; [1]) | Plant response rating, Crabgrass (crabgrass; [3]) | Plant response rating, Crabgrass (crabgrass; [4]) | Crabgrass plant response rating (crabgrass; [5]) | Crabgrass plant response rating (crabgrass; [6])
6: Crabgrass plant response rating (crabgrass; [7])
7: Crabgrass plant response rating (crabgrass; [2])

COc1ccc(-n2c(=O)on(C(=O)N(c3ccc(F)cc3)C(C)C)c2=O)cc1 [Compound 5]
0: Plant response rating, Bedstraw (bedstraw; [3]) | Plant response rating, Bedstraw (bedstraw; [4]) | Bedstraw plant response rating (bedstraw; [5]) | Plant response rating, Bedstraw (bedstraw; [8]) | B. signalgrass plant response rating (surinam grass; [1]) | B. signalgrass plant response rating (surinam grass; [6]) | B. signalgrass plant response rating (surinam grass; [7]) | Corn plant response rating (corn; [1]) | Corn plant response rating (corn; [2]) | Plant response rating, Corn (corn; [3]) | Plant response rating, Corn (corn; [4]) | Corn plant response rating (corn; [5]) | Corn plant response rating (corn; [6]) | Corn plant response rating (corn; [7]) | Plant response rating, Corn (corn; [8])
8: Plant response rating, B. signalgrass (surinam grass; [8])
4: Bedstraw plant response rating (bedstraw; [1]) | Bedstraw plant response rating (bedstraw; [2]) | Bedstraw plant response rating (bedstraw; [7]) | B. signalgrass plant response rating (surinam grass; [2])
6: Crabgrass plant response rating (crabgrass; [1]) | Crabgrass plant response rating (crabgrass; [2]) | Crabgrass plant response rating (crabgrass; [5]) | Crabgrass plant response rating (crabgrass; [7])
7: Plant response rating, Crabgrass (crabgrass; [8])
3: Bedstraw plant response rating (bedstraw; [6]) | Plant response rating, B. signalgrass (surinam grass; [3]) | Plant response rating, B. signalgrass (surinam grass; [4]) | B. signalgrass plant response rating (surinam grass; [5]) | Plant response rating, Crabgrass (crabgrass; [3]) | Plant response rating, Crabgrass (crabgrass; [4]) | Crabgrass plant response rating (crabgrass; [6])

CC(C)N(C(=O)n1oc(=O)n(CCC#N)c1=O)c1ccc(Cl)cc1 [Compound 444]
1: B. signalgrass plant response rating (surinam grass; [12])
4: B. signalgrass plant response rating (surinam grass; [1]) | B. signalgrass plant response rating (surinam grass; [9]) | Plant response rating, Crabgrass (crabgrass; [10])
10: Crabgrass plant response rating (crabgrass; [13])
5: Plant response rating, Crabgrass (crabgrass; [11])
8: B. signalgrass plant response rating (surinam grass; [13])
0: Plant response rating, B. signalgrass (surinam grass; [10]) | Plant response rating, B. signalgrass (surinam grass; [11]) | B. signalgrass plant response rating (surinam grass; [14]) | B. signalgrass plant response rating (surinam grass; [15]) | Corn plant response rating (corn; [16]) | Corn plant response rating (corn; [9]) | Plant response rating, Corn (corn; [10]) | Plant response rating, Corn (corn; [11]) | Corn plant response rating (corn; [12]) | Corn plant response rating (corn; [13]) | Corn plant response rating (corn; [14]) | Corn plant response rating (corn; [15])
2: Crabgrass plant response rating (crabgrass; [14]) | Crabgrass plant response rating (crabgrass; [15])
9: Crabgrass plant response rating (crabgrass; [16]) | Crabgrass plant response rating (crabgrass; [9]) | Crabgrass plant response rating (crabgrass; [12])

CCOP(=O)(Cn1c(=O)on(C(=O)N(c2ccccc2)C(C)C)c1=O)OCC [Compound 447]
6: Plant response rating, B. signalgrass (surinam grass; [8])
3: Plant response rating, Crabgrass (crabgrass; [11])
8: Crabgrass plant response rating (crabgrass; [12])
9: Crabgrass plant response rating (crabgrass; [13]) | Plant response rating, Crabgrass (crabgrass; [8])
2: B. signalgrass plant response rating (surinam grass; [2])
0: B. signalgrass plant response rating (surinam grass; [1]) | B. signalgrass plant response rating (surinam grass; [9]) | Plant response rating, B. signalgrass (surinam grass; [11]) | B. signalgrass plant response rating (surinam grass; [12]) | B. signalgrass plant response rating (surinam grass; [13]) | B. signalgrass plant response rating (surinam grass; [15]) | Corn plant response rating (corn; [16]) | Corn plant response rating (corn; [9]) | Corn plant response rating (corn; [2]) | Plant response rating, Corn (corn; [11]) | Corn plant response rating (corn; [12]) | Corn plant response rating (corn; [13]) | Corn plant response rating (corn; [15]) | Plant response rating, Corn (corn; [8]) | Crabgrass plant response rating (crabgrass; [16]) | Crabgrass plant response rating (crabgrass; [9]) | Crabgrass plant response rating (crabgrass; [2]) | Crabgrass plant response rating (crabgrass; [15])
